Experimental data: patent US20110257074A1, “METHOD FOR THE PURIFICATION OF SUBSTITUTED CYCLOPENT-2-EN-1-ONE CONGENERS AND SUBSTITUTED 1,3-CYCLOPENTADIONE CONGENERS FROM A COMPLEX MIXTURE USING COUNTERCURRENT SEPARATION” (Metaproteomics, LLC, priority 2008, published 2011)

Legend:
[1] = Shake-flask liquid distribution ratio (Kd), Hexane:Water:Buffer 10:9:1 solvent system; type: physicochemical
Protocol: Several shake-flask experiments were conducted to test several solvent systems and determine the liquid distribution ratio (Kd) and partition coefficient values for optimal separations. Partition coefficient values derived from shake-flask experiments are a reliable predictor of countercurrent chromatographic behavior. Kd is the concentration of the analyte in the upper phase divided by the concentration of the analyte in the lower phase and, in the alternative, may be listed as Ku/l.
General Procedure and Parameters for Shake Flask Experiments: Addition of 1 mL of the stock buffer at a known pH. Addition of the other necessary solvents to make up the system. Addition of the analyte mixture dissolved in hexane at 400 mg/mL. Final analyte concentration in the shake flask is 0.1 mg/mL. The flask was capped and mixed (by a vortex mixer) for 10 seconds. An aliquot was taken from the upper phase for HPLC analysis, and additionally a separate aliquot was taken from the lower phase for HPLC analysis from each flask. Each component was analyzed by HPLC and integrated using Shimadzu Class VP Software version 7.3 SP1.

[2] = Partition coefficient in trial HSCCC countercurrent separations of THIAA; type: physicochemical
Protocol: All HSCCC experimentation was conducted on a CCC-1000 J-type three-coiled planetary motion HSCCCC (Pharma-Tech Research Corp., Baltimore, Md., USA). The rotation radius is 7.5 cm, and 3×108 mL PTFE Teflon coils with an inner diameter of 1.6 mm, an outer diameter of 2.7 mm, and beta values of 0.47 to 0.73 for all coils. This was coupled with Shimadzu (Kyoto, Japan) liquid chromatography instrumentation: LC-20AT pump, DGU-20A5 degasser, CBM-20A controller, and SPD-10AV UV detector. A preparative Rheodyne (Rohnert Park, Calif. USA) 3725i-038 injector was in line with a 3.8 mL sample loop (changed to 10 mL for entry 7). The sample was monitored at 254 nm and 314 nm during the course of the run.
KU/L values for THIAA were determined in a variety of HEMWat solvent systems according to the shake-flask partitioning assay. Two solvent systems, referred to as A and B, provided K values within the range 1.5-2.5 and with significant differences between THIAA congeners (•K). For these reasons solvent systems A and B were selected for further development on the HSCCC (Table 9). […] The entries in Table 10 correspond to seven trial THIAA HSCCC purifications; entries 1-3 were conducted using solvent system A; entries 4-7 used solvent system B. Because of the difference in THIAA concentration between the shake-flask assay (0.1 mg/mL, 0.273 mM) and the HSCCC sample loop (100 mg/mL; 273 mM), aqueous phase buffer concentrations of 1.2 M (entries 1-3, Table 10) and 555 mM (entries 4-7, Table 10) were employed for the HSCCC trials. Entry 3 in Table 10 uses a bi-phasic sample-loop injection (solvent C, Table 9) consisting of 1.9 mL of upper phase (200 mg/mL THIAA, 0.55M) and 1.9 mL of lower phase (6.5M NH4HAc aq.). A switching volume was employed in entries 2, 6 and 7 in order to assess the elution-extrusion protocol as reported by Pauli et al.
Entries 4 & 5 Table 10, examine the effect of increasing the pH for solvent system B on the resolution between THIAA congeners. We reasoned that increased pH leads to a greater concentration of the ionized form of the THIAA (conjugate base) thus resulting in greater amounts of THIAA retained in the aqueous stationary phase i.e., increased retention volume (Vr).

[3] = trial 1, solvent system A, ascending elution, 680 rpm, 4 mL/min, 3.8 mL sample loop
[4] = trial 2, solvent system A, switching volume 320 mL, ascending elution, 680 rpm, 4 mL/min
[5] = trial 3, solvent system A, bi-phasic sample-loop injection (1.9 mL solvent system C), ascending elution
[6] = trial 4, solvent system B′, ascending elution, 680 rpm, 4 mL/min
[7] = trial 5, solvent system B, ascending elution, 680 rpm, 4 mL/min
[8] = trial 6, solvent system B, switching volume 600 mL, ascending elution
[9] = trial 7, solvent system B, switching volume 520 mL, 1.0 g raw material loaded, 10 mL sample loop

THIAA K Value ([1]; pH 4.9, Aug. 5, 2008)	THIAA K Value ([1]; pH 5.5, Aug. 5, 2008)	THIAA K Value ([1]; pH 5.6, Aug. 5, 2008)	THIAA K Value ([1]; pH 6.0, Aug. 5, 2008)	Partition Coefficient [2, 3]	Partition Coefficient [2, 4]	Partition Coefficient [2, 5]	Partition Coefficient [2, 6]	Partition Coefficient [2, 7]	Partition Coefficient [2, 8]	Partition Coefficient [2, 9]	SMILES
55.6	16.1	11.0	5.5	1.0	1.0	1.1	0.6	0.8	0.8	0.8	CCC(C)C(=O)C1=C(O)[C@@](O)(C(=O)CCC(C)C)[C@H](CCC(C)C)C1=O (single isomer, unassigned; (+)) [TH4]
60.3	17.8	11.4	5.5	–	–	–	–	–	–	–	CCC(C)C(=O)C1=C(O)C(O)(C(=O)CCC(C)C)C(CCC(C)C)C1=O (stereo not drawn) [TH3, trans tetra ad-isoalpha acid]

The remaining lines, values behind:

SMILES	THIAA K Value ([1]; pH 4.9, Aug. 5, 2008)	THIAA K Value ([1]; pH 5.5, Aug. 5, 2008)	THIAA K Value ([1]; pH 5.6, Aug. 5, 2008)	THIAA K Value ([1]; pH 6.0, Aug. 5, 2008)	Partition Coefficient [2, 3]	Partition Coefficient [2, 4]	Partition Coefficient [2, 5]	Partition Coefficient [2, 6]	Partition Coefficient [2, 7]	Partition Coefficient [2, 8]	Partition Coefficient [2, 9]
CC(C)CCC(=O)[C@]1(O)C(O)=C(C(=O)C(C)C)C(=O)[C@H]1CCC(C)C [TH1, (+)-(4R,5S)-3,4-dihydroxy-2-isobutyryl-5-(3-methylbutyl)-4-(4-methylpentanoyl)cyclopent-2-en-1-one]	16.5	4.2	3.0	1.5	2.0	2.0	2.1	1.7	2.5	2.7	2.6
CC(C)CCC(=O)[C@@]1(O)C(O)=C(C(=O)C(C)C)C(=O)[C@H]1CCC(C)C [TH2, (−)-(4S,5S)-3,4-dihydroxy-2-isobutyryl-5-(3-methylbutyl)-4-(4-methylpentanoyl)cyclopent-2-en-1-one]	10.8	2.5	1.8	0.9	–	–	–	–	–	–	–
CC(C)CCC(=O)[C@]1(O)C(O)=C(C(=O)CC(C)C)C(=O)[C@H]1CCC(C)C [TH5, (+)-(4R,5S)-3,4-dihydroxy-2-(3-methylbutanoyl)-5-(3-methylbutyl)-4-(4-methylpentanoyl)cyclopent-2-en-1-one]	32.8	9.5	6.6	3.3	1.4	1.4	1.4	0.9	1.3	1.3	1.5
